# Legend:
# acetylcholinesterase = acetylcholinesterase (Homo sapiens, UniProt P22303); assay: AChE inhibition, modified Ellman's method; assay type: biochemical
# Description: The AChE inhibition activity was measured based on the modified Ellman’s method. Tacrine was used as positive drug. The inhibition rates of AChE were calculated using Origin 8.0 software.
# [1] = Cytotoxicity against HONE1-EBV, CCK-8 method; assay type: cell-based, human; conditions: CCK-8, OD at 450 nm, 72 h, average values of three parallel experiments
# Description: (§1) The THP-1, HONE1, and HONE1-EBV cell lines were obtained from Sun Yat-sen University Cancer Center. The cytotoxic activity was determined by the CCK-8 (Dojindo) method. Briefly, THP-1, HONE1, and HONE1-EBV cells were cultured in DMEM media supplemented with 10% […] (FBS), respectively. The cells were seeded at a density of 400 to 800 cells/well in 384-well plates and then incubated with the compounds in a gradient concentration (50.0, 10.0, 2.0, 0.4, and 0.08 μM) or with a solvent control for 72 h, followed by the addition of CCK-8 reagent. The OD value of each well was measured at 450 nm using a SpectraMax M5 Microplate Reader (Molecular Devices). Sorafenib functioned as the positive control. Dose–response curves were plotted to determine IC50 based upon the average values of three parallel experiments using Prism 5.0.
# [2] = Cytotoxicity against HONE1, CCK-8 method; assay type: cell-based, human; conditions: CCK-8, OD at 450 nm, 72 h, average values of three parallel experiments
# Description: as §1
# acetylcholinesterase, sequence (P22303 32-614): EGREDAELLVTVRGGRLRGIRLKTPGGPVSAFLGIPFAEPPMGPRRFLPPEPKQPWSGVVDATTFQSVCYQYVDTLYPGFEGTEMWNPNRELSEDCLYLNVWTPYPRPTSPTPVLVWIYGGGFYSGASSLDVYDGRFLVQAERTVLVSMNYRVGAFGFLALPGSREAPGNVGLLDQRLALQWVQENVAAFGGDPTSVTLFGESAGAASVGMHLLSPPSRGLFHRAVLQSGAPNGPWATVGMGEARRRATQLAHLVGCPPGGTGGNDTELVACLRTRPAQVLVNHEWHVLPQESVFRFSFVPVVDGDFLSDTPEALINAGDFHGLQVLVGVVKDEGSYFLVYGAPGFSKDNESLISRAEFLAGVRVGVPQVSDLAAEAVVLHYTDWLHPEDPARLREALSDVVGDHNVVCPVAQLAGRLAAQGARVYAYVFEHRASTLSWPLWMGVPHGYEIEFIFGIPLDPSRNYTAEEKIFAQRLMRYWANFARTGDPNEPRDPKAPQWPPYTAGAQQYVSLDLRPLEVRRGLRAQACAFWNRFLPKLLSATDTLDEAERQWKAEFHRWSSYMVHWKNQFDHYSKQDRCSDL
smiles,measurement,setting,value
"CCCCCCCC[C@H](C)[C@@H]1CC(=O)NCC(=O)N[C@@H](C(C)C)C(=O)N[C@H](CC(C)C)C(=O)N[C@@H](C)C(=O)N[C@@H](C(C)C)C(=O)O1 [Compound 4, Scopularide I]",IC50,acetylcholinesterase,15.6 µM
same,IC50,[1],10.1 µM
same,IC50,[2],13 µM

# Source: publication PMC8703611, “Cyclic Peptides from the Soft Coral-Derived Fungus Aspergillus sclerotiorum SCSIO 41031” (Marine Drugs, 2021)
